Experimental data: US5506217A, “Phosphonates as anti-cancer agents” (The University of British Columbia, priority 1994, dated 1996)

Legend:
P388 tumor cells = experiment: colonogenic cell survival assay; format: cell-based; conditions: Mus musculus, 120 h, P388, soft agar, 5 days, read-out: Number of colonies Formed (% of Control)
Protocol: (§1) Inhibition of colony formation in soft agar medium (colonogenic cell survival assay) is a more rigorous and direct measurement of cell kill or growth inhibition, and reflects the anti-cancer activity of the test compound. Briefly, tumor cells were cultured in petri dishes in methylcellulose, with or without a phosphonate test compound, and the number of colonies formed during a 5-day incubation period were counted.
The efficacy of 4-hexadecylthio-3-methoxybutane phosphonocholine on the growth of a mouse […] tumor was evaluated. The P388 cell line was cultured in a soft agar in the presence and absence of various concentrations of thioalkylphosphonate for 5 days, the number of tumor colonies formed during this period of time was registered.

WEHI-3B cells = experiment: WEHI-3B tumor growth under the skin in mice (S-thioalkylphosphonate); format: in vivo
Protocol: We also provide data on the activity of S-thioalkylphosphonate to delay growth of tumor in the mice. WEHI-3B cells were grown in mice under the skin. Three days after the injection of cancer cells the mice received daily 10 mg/kg thialkylphosphonate for 21 days. The control mice received the saline alone instead of the drug. After 21 days, the tumor volume was measured. […] The tumor volume was measured in CM^3.

L1210 tumor cells = experiment: colonogenic cell survival assay; format: cell-based; conditions: Mus musculus, 120 h, L1210, soft agar, read-out: Number of Colonies Formed (% of Control)
Protocol: as §1
The effectiveness of S-thioalkylphosphonate on the growth of a lymphoma cell line was also investigated. L1210 is a mouse B-Cell tumor (lymphoma), was tested in soft agar for susceptibility to the cytotoxic action of thioalkylphosphonate.

[1] = system: RPMI7915 cells (human melanoma); experiment: effect of S-thioalkylphosphonate on tumor cell line (% of control); format: cell-based
[2] = system: human colon carcinoma (HT29); experiment: as above; format: cell-based; conditions: read-out: HT29 cells (% of control)

`CCCCCCCCCCCCCCCCSCC(CCP(=O)([O-])OCC[N+](C)(C)C)OC` (stereo not shown) [S-Thioalkylphosphonocholine, 4-hexadecylthio-3-methoxybutane phosphonocholine] was tested, and the activity at 0.62 µM (P388 tumor cells; 0.62 μM) was 55%, the activity at 1.25 µM (P388 tumor cells; 1.25 μM) was 43.7% and the activity at 2.5 µM (P388 tumor cells; 2.5 μM) was 41%. For the same compound, the activity at 5 µM (P388 tumor cells; 5 μM) was 29%, the activity at 10 µM (P388 tumor cells; 10 μM) was 3% and the activity at 20 µM (P388 tumor cells; 20 μM) was 1%. For the same compound, the “reduction of tumor size” value (WEHI-3B cells; after 21 days, daily 10 mg/kg) was “about 50%”, the “Tumor Volume at Day 21” value (WEHI-3B cells; daily 10 mg/kg for 21 days, from three days after injection of cancer cells) was “.0359 ± 0.128 cm^3” and the activity at 0.65 µM (L1210 tumor cells; 0.65 μM) was 65%. For the same compound, the activity at 1.25 µM (L1210 tumor cells; 1.25 μM) was 47%, the activity at 2.5 µM (L1210 tumor cells; 2.5 μM) was 30.5% and the activity at 5 µM (L1210 tumor cells; 5 μM) was 30%. It also gave an activity at 10 µM (L1210 tumor cells; 10 μM) of 20.5%, an activity at 20 µM (L1210 tumor cells; 20 μM) of 14% and an activity at 0.6 µM ([1]; RPMI-7951, 0.6 μM) of 98%. It also gave an activity at 1.25 µM ([1]; RPMI-7951, 1.25 μM) of 80%, an activity at 2.5 µM ([1]; RPMI-7951, 2.5 μM) of 78% and an activity at 5 µM ([1]; RPMI-7951, 5 μM) of 63%. It also gave an activity at 10 µM ([1]; RPMI-7951, 10 μM) of 40%, an activity at 20 µM ([1]; RPMI-7951, 20 μM) of 29% and an activity at 40 µM ([1]; RPMI-7951, 40 μM) of 0%. It also gave an activity at 0.6 µM ([2]; HT-29, 0.6 μM) of 99%, an activity at 1.25 µM ([2]; HT-29, 1.25 μM) of 83% and an activity at 2.5 µM ([2]; HT-29, 2.5 μM) of 71%. For the same compound, the activity at 5 µM ([2]; HT-29, 5 μM) was 54%, the activity at 10 µM ([2]; HT-29, 10 μM) was 45% and the activity at 20 µM ([2]; HT-29, 20 μM) was 18%. For the same compound, the activity at 40 µM ([2]; HT-29, 40 μM) was 1%.
